According to US7671061B2, “Methods and compositions for treating pain” (Hydra Biosciences, Inc., priority 2005, dated 2010):
Read-outs that look alike come from different tables or passages of the source.

Biological target: T1, hTRPA1 (Homo sapiens, UniProt O75762, K186N)
T1 construct: expressed in transfected cells; host or cells: HEK293/TREx (Invitrogen), induced with tetracycline
Assay: High throughput Ca2+ fluorescence (Fluo4) assay, AITC stimulation
Type: cell-based
From the text: The assay depended on detection of the rise in intracellular Ca^2+ concentration ([Ca^2+]i) following channel activation in cells inducibly expressing the TRPA1 channel. Ca^2+ rise was quantified with the use of fluorescent Ca^2+ indicators that were loaded into cells and thereafter indicated the [Ca^2+]i. Ca^2+ influx followed activation of the TRPA1 channel. Compounds inhibiting the [Ca^2+]i rise were considered hits for further investigation.
These cells were maintained in the growth medium recommended by the manufacturer supplemented with 100 μg/ml hygromycin to promote retention of the TRPA1 construct. After growing to near confluency, cells were plated at a density of ˜25,000 cells/well in 384 well CellBind plates (Corning) in the presence of 1 μg/ml tetracycline, and allowed to grow for 20-30 hrs. A nearly confluent monolayer resulted. Cells were then loaded with Ca^2+ dye: Fura-2/AM or Fluo4/AM was added to the wells to a final concentration of 2 μM or 1 μM, respectively, and incubated for 80 min or 60 min, respectively, at room temperature. […] Frames were acquired at a rate of 0.2 Hz. During the assay, the plates were continuously […], with pipette mixing of wells following addition of each reagent. For the screening assay, 13 μl of a diluted stock (at 50 μM) was added to each well for 2 minutes following the collection of a short (4 frame) baseline. […] Data was collected for ˜3 minutes following addition of AITC, where the fluorescent intensity (for Fluo4) and the F340/F380 ratio (for Fura-2) were proportional to the [Ca^2+]i. Negative controls consisted of HEK293/TREx TRPA1 cells exposed to AITC, but no compound. […] These controls defined a screening window, and “hits” were defined as those compounds inhibiting the fluorescence response by at least 40%. IC50 values were determined for compounds defined as “hits.” The Fluo4 cell-based fluorescence assay was used to determine the intracellular Ca^2+ concentration in the presence of varying drug concentration. […] Compounds were tested in triplicate at all concentrations. Standard software was used to fit IC50 curves.

[1] = Table 1, read-out: hTRPA1 Fluo4 IC50
[2] = Table 2, read-out: hTRPA1 Fluor IC50

T1 sequence (O75762 whole entry K186N): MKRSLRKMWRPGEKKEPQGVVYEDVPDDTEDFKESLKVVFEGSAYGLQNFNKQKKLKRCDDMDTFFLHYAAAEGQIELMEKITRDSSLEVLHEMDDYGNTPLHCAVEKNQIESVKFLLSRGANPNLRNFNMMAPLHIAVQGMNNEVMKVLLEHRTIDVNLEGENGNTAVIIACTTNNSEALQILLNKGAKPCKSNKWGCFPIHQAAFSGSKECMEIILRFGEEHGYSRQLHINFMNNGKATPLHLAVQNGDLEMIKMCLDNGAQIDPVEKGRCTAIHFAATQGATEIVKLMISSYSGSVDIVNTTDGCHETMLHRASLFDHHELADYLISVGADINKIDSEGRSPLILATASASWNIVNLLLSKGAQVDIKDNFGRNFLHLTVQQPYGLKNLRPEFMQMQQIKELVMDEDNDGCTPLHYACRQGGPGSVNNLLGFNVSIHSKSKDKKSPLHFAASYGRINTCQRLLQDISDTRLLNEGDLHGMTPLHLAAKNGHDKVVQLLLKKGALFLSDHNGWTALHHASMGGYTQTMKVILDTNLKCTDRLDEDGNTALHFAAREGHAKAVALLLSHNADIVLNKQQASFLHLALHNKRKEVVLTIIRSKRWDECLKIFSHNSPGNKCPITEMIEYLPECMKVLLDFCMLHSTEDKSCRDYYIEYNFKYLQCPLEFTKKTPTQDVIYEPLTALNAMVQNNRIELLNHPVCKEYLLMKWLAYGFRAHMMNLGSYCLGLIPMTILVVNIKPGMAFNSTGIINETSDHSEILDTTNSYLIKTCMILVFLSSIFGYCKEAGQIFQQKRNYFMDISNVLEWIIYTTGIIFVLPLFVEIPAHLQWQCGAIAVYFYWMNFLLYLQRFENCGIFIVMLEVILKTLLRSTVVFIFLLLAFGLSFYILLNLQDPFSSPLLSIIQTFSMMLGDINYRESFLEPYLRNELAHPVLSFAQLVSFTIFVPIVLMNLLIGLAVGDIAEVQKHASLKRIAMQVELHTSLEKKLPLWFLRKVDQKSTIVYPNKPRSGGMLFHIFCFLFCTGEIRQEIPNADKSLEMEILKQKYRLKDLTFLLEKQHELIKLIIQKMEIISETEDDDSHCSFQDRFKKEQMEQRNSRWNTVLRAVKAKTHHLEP

Row | Structure (SMILES) | IC50 [1] | IC50 [2]
1 | CC1=C(C(=O)N(C)C)C(c2ccc(C)cc2)NC(=S)N1 (centres unmarked) | > 10 µM | –
2 | CCc1cccc(CC)c1NC(=O)Cn1cnc2c1c(=O)n(C)c(=O)n2C [Compound 383] | – | > 10 µM
3 | CCOC(=O)C1=C(C)N(C)C(=S)NC1c1cccc(Cl)c1Cl (centres unmarked) | > 10 µM | –
4 | CC1=C(C(=O)OC(C)(C)C)C(c2cccc(Cl)c2)NC(=O)N1 (centres unmarked) | > 10 µM | –
5 | COc1ccc(C)cc1NC(=O)Cn1cnc2c1c(=O)n(C)c(=O)n2C [Compound 373] | – | > 10 µM
6 | CC1=C(C(=O)N(C)C)C(c2ccccc2F)NC(=S)N1 (centres unmarked) | > 10 µM | –
7 | CC(C(=O)Nc1ccc(F)cc1)n1cnc2c1c(=O)n(C)c(=O)n2C (centres unmarked) [Compound 327] | – | > 10 µM
8 | CC1=C(C(=O)Nc2ccccc2)C(c2ccccc2)NC(=S)N1 (centres unmarked) | ≥ 30 µM | –
9 | Cn1c(=O)c2c(ncn2CC(=O)NCCOc2ccc(C(C)(C)C)cc2)n(C)c1=O [Compound 320] | – | ≤ 10 µM
10 | CCOC(=O)C1=C(c2ccccc2)N(C)C(=O)NC1c1ccccc1F (centres unmarked) | > 10 µM | –
11 | Cn1c(=O)c2c(ncn2CC(=O)NCC(c2ccco2)N2CCCC2)n(C)c1=O (centres unmarked) [Compound 308] | – | > 10 µM
12 | COC(=O)C1=C(C)N(C)C(=O)NC1c1cccc(Cl)c1Cl (centres unmarked) | > 10 µM | –
13 | CCN(C(=O)Cn1cnc2c1c(=O)n(C)c(=O)n2C)c1ccccc1 [Compound 283] | – | > 10 µM
14 | COC(=O)C1=C(C)NC(=O)NC1c1ccc(C(C)(C)C)cc1 (centres unmarked) | > 10 µM | –
15 | CSc1cccc(NC(=O)Cn2cnc3c2c(=O)n(C)c(=O)n3C)c1 [Compound 282] | – | ≤ 10 µM
16 | CCOC(=O)C1=C(C)NC(=S)NC1c1ccc(O)c(OC)c1 (centres unmarked) | ≤ 10 µM | –
17 | Cn1c(=O)c2c(ncn2CC(=O)NCC(c2cccs2)N2CCCC2)n(C)c1=O (centres unmarked) [Compound 312] | – | > 10 µM
18 | CC1=C(C(=O)OCc2ccccc2)C(c2ccccc2F)NC(=O)N1 (centres unmarked) | > 10 µM | –
19 | COC(=O)C1=C(C)N(C)C(=O)NC1c1ccccc1C (centres unmarked) | > 10 µM | –
20 | CC1=C(C(=O)OCc2ccccc2)C(c2cccc(Cl)c2)NC(=O)N1 (centres unmarked) | > 10 µM | –
21 | CCOC(=O)C1=C(C)NC(=S)NC1c1cc(OC)ccc1Br (centres unmarked) | > 10 µM | –
22 | CCOC(=O)C1=C(C)NC(=S)NC1c1ccc(O)cc1 (centres unmarked) | > 10 µM | –
23 | CCOC(=O)C1=C(C)NC(=S)NC1c1ccc(OC(C)C)cc1 (centres unmarked) | > 10 µM | –
24 | Cn1c(=O)c2c(ncn2CC(=O)Nc2cccnc2)n(C)c1=O [Compound 367] | – | > 10 µM
25 | CC(C)N(C(=O)Cn1cnc2c1c(=O)n(C)c(=O)n2C)c1ccccc1 [Compound 336] | – | > 10 µM
26 | Cn1c(=O)c2c(ncn2CC(=O)NC2CCCCCCC2)n(C)c1=O [Compound 278] | – | > 10 µM
27 | CCn1c2ccccc2c2cc(NC(=O)Cn3cnc4c3c(=O)n(C)c(=O)n4C)ccc21 [Compound 254] | – | > 10 µM

Row | Structure (SMILES) | IC50 [1] | IC50 [2]
28 | CSc1ccc(C2NC(=O)NC(C)=C2C(=O)OCc2ccccc2)cc1 (centres unmarked) | > 10 µM | –
29 | CCN1C(=O)NC(c2ccccc2Br)C(C(=O)OC)=C1C (centres unmarked) | > 10 µM | –
30 | CC(C)C(C)NC(=O)Cn1cnc2c1c(=O)n(C)c(=O)n2C (centres unmarked) [Compound 332] | – | > 10 µM
31 | CC1=C(C(=O)OC(C)(C)C)C(c2ccc(Br)cc2)NC(=O)N1 (centres unmarked) | > 10 µM | –
32 | COC(=O)C1=C(C)N(C)C(=O)N(C)C1c1cccc([N+](=O)[O-])c1 (centres unmarked) | > 10 µM | –
33 | CC1=C(C(=O)OC(C)C)C(c2ccc(F)c(Br)c2)NC(=O)N1 (centres unmarked) | > 10 µM | –
34 | Cn1c(=O)c2c(ncn2CC(=O)NC2CCCC2)n(C)c1=O [Compound 218] | – | > 10 µM
35 | C=CCOC(=O)C1=C(C)NC(=O)NC1c1ccc(C(C)(C)C)cc1 (centres unmarked) | > 10 µM | –
36 | CC1=C(C(=O)OC2CCCC2)C(c2ccc(C)c(Br)c2)NC(=O)N1 (centres unmarked) | > 10 µM | –
37 | COC(=O)C1=C(C)N(C)C(=O)NC1c1cccc(Cl)c1 (centres unmarked) | > 10 µM | –
38 | CC(C(=O)Nc1cccc(Cl)c1)n1cnc2c1c(=O)n(C)c(=O)n2C (centres unmarked) [Compound 297] | – | > 10 µM
39 | COC(=O)C1=C(C)NC(=O)NC1c1ccc(O)c(OC)c1 (centres unmarked) | > 10 µM | –
40 | CCCC1=C(C(=O)OCC)C(c2cccc([N+](=O)[O-])c2)NC(=O)N1C (centres unmarked) | > 10 µM | –
41 | C=CCOC(=O)C1=C(C)NC(=S)NC1c1ccccc1F (centres unmarked) | > 10 µM | –
42 | CCOC(=O)C1=C(C)NC(=S)NC1c1cc(C)ccc1C (centres unmarked) | > 10 µM | –
43 | CN(CCCNC(=O)Cn1cnc2c1c(=O)n(C)c(=O)n2C)c1ccccc1 [Compound 322] | – | > 10 µM
44 | CCOC(=O)C1=C(c2ccccc2)NC(=S)NC1c1cccc(OC)c1OC (centres unmarked) | > 10 µM | –
45 | CCC(C)OC(=O)C1=C(C)NC(=O)NC1c1ccc(C(F)(F)F)cc1 (centres unmarked) | ≤ 10 µM | –
46 | COc1cc2c(cc1NC(=O)Cn1cnc3c1c(=O)n(C)c(=O)n3C)oc1ccccc12 [Compound 253] | – | > 10 µM
47 | CC1=C(C(=O)OC(C)C)C(c2ccc(C(C)C)cc2)NC(=O)N1 (centres unmarked) | > 10 µM | –
48 | Cc1cc(C)n(CCCNC(=O)Cn2cnc3c2c(=O)n(C)c(=O)n3C)n1 [Compound 323] | – | > 10 µM
49 | CCOC(=O)C1=C(C)NC(=S)NC1c1ccc(N(C)C)cc1 (centres unmarked) | > 10 µM | –
50 | COCCOC(=O)C1=C(C)NC(=S)NC1c1ccc(F)cc1 (centres unmarked) | ≤ 5 µM | –
51 | CCCCOC(=O)C1=C(C)NC(=O)NC1c1ccc(C)cc1 (centres unmarked) | > 10 µM | –
52 | CC(C(=O)Nc1ccccc1)n1cnc2c1c(=O)n(C)c(=O)n2C (centres unmarked) [Compound 302] | – | > 10 µM
53 | CCN(CC)C(=O)C1=C(C)NC(=S)NC1c1ccccc1 (centres unmarked) | > 10 µM | –
54 | Cc1ccccc1NC(=O)Cn1cnc2c1c(=O)n(C)c(=O)n2C [Compound 358] | – | > 10 µM

Row | Structure (SMILES) | IC50 [1] | IC50 [2]
55 | COC(=O)C1=C(C)N(C)C(=O)NC1c1cccc(C)c1 (centres unmarked) | > 10 µM | –
56 | COC(=O)C1=C(C)NC(=S)NC1c1cc(OC)ccc1Br (centres unmarked) | ≤ 5 µM | –
57 | CC(C)C(NC(=O)Cn1cnc2c1c(=O)n(C)c(=O)n2C)c1ccc2c(c1)OCCCO2 (centres unmarked) [Compound 345] | – | > 10 µM
58 | CCCCCOC(=O)C1=C(C)NC(=O)NC1c1cccc(Br)c1 (centres unmarked) | > 10 µM | –
59 | Cn1c(=O)c2c(ncn2CC(=O)Nc2ccc(F)c(F)c2)n(C)c1=O [Compound 245] | – | ≤ 10 µM
60 | CCOC(=O)C1=C(C)NC(=O)NC1c1ccccc1C (centres unmarked) | > 10 µM | –
61 | CC1=C(C(=O)OC(C)C)C(c2ccc(C(C)(C)C)cc2)NC(=O)N1 (centres unmarked) | > 10 µM | –
62 | CCOC(=O)C1=C(C)NC(=S)NC1c1cc(OC)ccc1OC (centres unmarked) | > 10 µM | –
63 | CC1=C(C(=O)OCc2ccc(C)cc2)C(c2ccccc2)NC(=O)N1 (centres unmarked) | > 10 µM | –
64 | CCOC(=O)C1=C(CN2CCc3ccccc32)NC(=O)NC1c1cc(C)ccc1C (centres unmarked) | > 10 µM | –
65 | CCOC(=O)C1=C(C)NC(=S)NC1c1ccc(CC)cc1 (centres unmarked) | > 10 µM | –
66 | CCOC(=O)C1=C(C)NC(=S)NC1c1ccc(OC)c(OC)c1 (centres unmarked) | > 10 µM | –
67 | CC1=C(C(=O)OC(C)C)C(c2ccccc2Cl)NC(=S)N1 (centres unmarked) | ≤ 10 µM | –
68 | COC(=O)C1=C(C)NC(=O)NC1c1ccc(O)cc1 (centres unmarked) | > 10 µM | –
69 | CC1=C(C(=O)OCC(C)C)C(c2ccccc2C(F)(F)F)NC(=O)N1 (centres unmarked) | ≤ 5 µM | –
70 | CC(C(=O)Nc1cccc(C(F)(F)F)c1)n1cnc2c1c(=O)n(C)c(=O)n2C (centres unmarked) [Compound 318] | – | > 10 µM
71 | C=CCOC(=O)C1=C(C)NC(=O)NC1c1ccc(F)cc1 (centres unmarked) | > 10 µM | –
72 | CCN1C(=O)NC(c2ccc(Br)cc2)C(C(=O)OC(C)C)=C1C (centres unmarked) | ≤ 5 µM | –
73 | COC(=O)C1=C(C)NC(=O)NC1c1cc(C)ccc1C (centres unmarked) | > 10 µM | –
74 | CCCC1=C(C(=O)OCC)C(c2ccc(C(F)(F)F)cc2)NC(=O)N1C (centres unmarked) | > 10 µM | –
75 | CCOC(=O)c1ccccc1NC(=O)Cn1cnc2c1c(=O)n(C)c(=O)n2C [Compound 362] | – | > 10 µM
76 | Cn1c(=O)c2c(ncn2CC(=O)Nc2cc(F)cc(F)c2)n(C)c1=O [Compound 386] | – | ≤ 5 µM
77 | Cn1c(=O)c2c(ncn2CC(=O)NCCOC(=O)c2ccc(Cl)cc2)n(C)c1=O [Compound 256] | – | > 10 µM
78 | CC1=C(C(=O)OCc2ccc(C)cc2)C(c2ccc(N(C)C)cc2)NC(=O)N1 (centres unmarked) | > 10 µM | –
79 | CCCOC(=O)C1=C(C)NC(=O)NC1c1cccc2ccccc12 (centres unmarked) | > 10 µM | –
80 | Cc1cc(Cl)ccc1NC(=O)Cn1cnc2c1c(=O)n(C)c(=O)n2C [Compound 298] | – | > 10 µM
